From US20040147531A1, “Amidine derivatives for treating amyloidosis” (priority 2001, published 2004)

Columns and labels:
Set-up in all cases: key: “+” = active; “−” = inactive; “pr” = promoting
[1] = biological target: T1, Aβ40 (Homo sapiens, UniProt P05067); test: mass spectroscopy (MS) assay, binding to Aβ; conditions: 200 μM test compound, 20 μM solubilized Aβ40, pH 7.4; ability to bind to Aβ
T1 construct: 200 μM of a test compound and 20 μM of solubilized Aβ40
Description: Test compounds were purchased from commercial sources or synthesized and screened by thioflavin T fluorescent assay (“ThT assay”). Alternatively, one could screen test compounds by circular dichroism (“CD”), electron microscopy (“EM”), or mass spectroscopy (“MS”) assays.
And in the mass spectroscopy (“MS”) assay, samples were prepared as aqueous solutions containing 20% ethanol, 200 μM of a test compound and 20 μM of solubilized Aβ40. The pH value of each sample was adjusted to 7.4 (±0.2) by addition of 0.1% aqueous sodium hydroxide. The solutions were then analyzed by electrospray ionization mass spectroscopy using a Waters ZQ 4000 mass spectrometer. Samples were introduced by direct infusion at a flow-rate of 25 μL/min within 2 hr. after sample preparation. The source temperature was kept at 70° C. and the cone voltage was 20 V for all the analysis. Data were processed using Masslynx 3.5 software.

[2] = biological target: T2, Aβ (Homo sapiens, UniProt P05067); test: electron microscopy (EM) assay, inhibition of fibrillogenesis; assay type: biochemical; conditions: soluble Aβ
T2 construct: Aβ peptide: Aβ (1-40) 95% purity (American Peptide Company, Inc, Sunnyvale, Calif. USA)
T2 sequence (P05067 672-711 limits assumed): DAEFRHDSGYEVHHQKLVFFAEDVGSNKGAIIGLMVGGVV
Text: (§1) Test compounds were purchased from commercial sources or synthesized and screened by thioflavin T fluorescent assay (“ThT assay”). Alternatively, one could screen test compounds by circular dichroism (“CD”), electron microscopy (“EM”), or mass spectroscopy (“MS”) assays. The MS assay gives data on the ability of compounds to bind to an amyloid protein, whereas the ThT, EM, and CD assays give data on inhibition of fibrillogenesis.
Similarly, in the electron microscopy (“EM”) assay, each sample was sonicated for 1 min to disrupt large clumps before testing. The sample (5-μL aliquot) was placed on freshly cleaved mica and allowed to air dry. The mica was placed in a Balzers High-vacuum, Freeze-Etch Unit (model 301), shadowed with platinum (30° angle), and coated with a carbon film. The replica was removed from the mica by flotation and transferred onto a 300-mesh copper grid. Samples were examined using a Joel 2000 FX transmission electron microscope. […]

[3] = biological target: T2, Aβ; test: circular dichroism (CD) assay, inhibition of fibrillogenesis; assay type: biochemical; conditions: soluble Aβ, 37° C., 190-240 nm
Text: as §1
In the circular dichroism (“CD”) assay, samples were transferred to 0.1-cm path-length quartz cuvettes and CD scans were taken using a Jasco J-715 spectropolarimeter. Readings were taken at 37° C., between 190 and 240 nm, with a resolution of 0.1 nm and a bandwidth of 1 nm. […]

T1 sequence (P05067 672-711 limits assumed): as above

Row | SMILES | MS Assay [1] | EM [2] | CD [3]
1 | Cl.N=C(N)c1ccc(OCCCOc2ccc(CCC(=O)O)cc2)cc1 [Compound 40] | − |  | 
2 | Cl.N=C(N)c1ccc(OCCCCCCCC(=O)O)cc1 [Compound 42] | + |  | 
3 | Br.N=C(N)c1ccc(OCCCCCCCCBr)cc1 [Compound 44] | + |  | 
4 | N=C(N)c1ccc(-c2cc3ccc(C(=N)N)cc3[nH]2)cc1 [Compound 47] | − |  | 
5 | Cl.Cl.N=C(N)Nc1ccc(OCCCCCOc2ccc(NC(=N)N)cc2)cc1 [Compound 49] | + |  | 
6 | CC(C)NC(=N)c1ccc(COc2cccc3c(OCc4ccc(C(=N)NC(C)C)cc4)cccc23)cc1 [Compound 61] | + | + | +
7 | c1cc2c(cc1C1=NCCN1)c1cc(C3=NCCN3)ccc1n2CCCCCn1c2ccc(C3=NCCN3)cc2c2cc(C3=NCCN3)ccc21 [Compound 63] | + |  | 
8 | N=C(N)c1ccc(COc2ccc([N+](=O)[O-])cc2)cc1 [Compound 67] | − |  | 
9 | N=C(N)c1cccc(OCc2ccccc2)c1 [Compound 68] | − |  | 
10 | Cc1cc(-c2nc3cc(C(=N)N)ccc3[nH]2)c(C)cc1-c1nc2cc(C(=N)N)ccc2[nH]1 [Compound 73] | + |  | 
11 | N=C(N)c1cccc(OCCC(O)COc2cccc(C(=N)N)c2)c1 (centres unmarked) [Compound 79] | + |  | 
12 | N=C(N)c1ccc2[nH]c(Cc3nc4cc([N+](=O)[O-])ccc4[nH]3)nc2c1 [Compound 80] | + |  | 
13 | N=C(N)c1ccc2[nH]c(-c3ccccc3)nc2c1 [Compound 81] | + |  | 
14 | N=C(N)c1ccc(-c2cc(-c3cccc(C(=N)N)c3)no2)cc1 [Compound 83] | + | + | −
15 | COc1cc(C2=NCCN2)ccc1OCCCOc1ccc(C2=NCCN2)cc1OC [Compound 85] | − |  | 
16 | c1cc2[nH]c(-c3ccc4[nH]c(CCc5nc6cc(-c7nc8cc(C9=NCCN9)ccc8[nH]7)ccc6[nH]5)nc4c3)nc2cc1C1=NCCN1 [Compound 87] | + |  | 

Row | SMILES | MS Assay [1] | EM [2] | CD [3]
17 | CCCCNC(=N)c1ccc2nc(-c3ccc(CCc4ccc(-c5nc6ccc(C(=N)NCCCC)cc6[nH]5)cc4)cc3)[nH]c2c1 [Compound 89] | + |  | 
18 | CC(C)NC(=N)c1ccc(COc2ccc3ccc(OCc4ccc(C(=N)NC(C)C)cc4)cc3c2)cc1 [Compound 90] | + |  | 
19 | N=C(N)c1ccc(OCCCCCOc2ccc(-c3nc4cc(C(=N)N)ccc4[nH]3)cc2)cc1 [Compound 94] | + |  | 
20 | CCC(C)NC(=N)c1ccc(OCCCCCOc2cccc(C3=NC4C=C(C(=N)NC(C)C)C=CC4N3)c2)cc1.Cl.Cl.Cl (centres unmarked) [Compound 96] | + |  | 
21 | Cn1c(CCCCc2nc3cc(C(=N)N)ccc3n2C)nc2cc(C(=N)N)ccc21 [Compound 97] | + |  | 
22 | N=C(N)c1ccc(NC(=O)CC(=O)Nc2ccc(C(N)N)cc2)cc1 [Compound 98] | + |  | 
23 | N=C(N)c1ccc(-c2ccc(-c3ccc(C(=N)N)cc3)o2)cc1 [Compound 99] | + |  | 
24 | N=C(N)c1ccc2nc(-c3ccc4cc(-c5nc6ccc(C(=N)N)cc6[nH]5)ccc4c3)[nH]c2c1 [Compound 110] | + |  | 
25 | N=C(N)c1ccc2nc(-c3ccc(-c4ccc([N+](=O)[O-])cc4)o3)[nH]c2c1 [Compound 111] | + |  | 
26 | N=C(N)c1ccc2nc(-c3ccc(C4CC4c4ccc(-c5nc6ccc(C(=N)N)cc6[nH]5)cc4)cc3)[nH]c2c1 (centres unmarked) [Compound 115] | + | + | −
27 | COc1ccc(-c2ccc(-c3ccc(C(=N)N)cc3)o2)cc1 [Compound 117] | + | + | −
28 | N=C(N)c1ccc(-c2coc(-c3ccc(C(=N)N)cc3)c2)cc1 [Compound 120] | + | + | −
29 | COc1cc(NC(=N)N)ccc1-c1ccc(-c2ccc(NC(=N)N)cc2OC)o1 [Compound 121] | + | + | −
30 | N=C(N)c1ccc(-c2ccc(-c3nc4ccccc4[nH]3)o2)cc1 [Compound 122] | + | + | +
31 | COc1ccc(-c2ccc(-c3ccc(NC(=N)N)cc3)o2)cc1 [Compound 123] | + | + | −

Continued, values first:

Row | MS Assay [1] | EM [2] | CD [3] | SMILES
32 | + |  |  | N=C(N)c1ccc(OCCCCCCCCCBr)cc1 [Compound 43]
33 | + |  |  | Cl.N=C(N)c1ccc(OCCCCCCCCC(=O)O)cc1 [Compound 45]
34 | + |  |  | Cl.Cl.N=C(N)Cc1ccc(OCCCCCOc2ccc(CC(=N)N)cc2)cc1 [Compound 48]
35 | + |  |  | Cc1c(-c2ccc(C(=N)N)cc2)oc(-c2ccc(C(=N)N)cc2)c1C [Compound 57]
36 | + |  |  | COc1ccc2c(c1)[nH]c1cc(C(=N)N)ccc12 [Compound 59]
37 | + | − | + | CC(C)NC(=N)c1cccc(COc2cccc3c(OCc4cccc(C(=N)NC(C)C)c4)cccc23)c1 [Compound 60]
38 | + | + | + | CC(C)NC(=N)c1ccc(OCc2ccc(COc3ccc(C(=N)NC(C)C)cc3)c3ccccc23)cc1 [Compound 62]
39 | + | + | + | CC(C)c1ccc(OCc2ccc(C(=N)N)cc2)cc1 [Compound 70]
40 | + | + | − | N=C(N)c1ccc(OCCCCCCCCCCCCOc2ccc(C(=N)N)cc2Br)c(Br)c1 [Compound 76]
41 | + |  |  | N=C(N)c1cccc(COc2cccc3c(OCc4cccc(C(=N)N)c4)cccc23)c1 [Compound 77]
42 | − |  |  | N=C(N)c1ccc(-c2cc(-c3cccc(C(=N)N)c3)on2)cc1 [Compound 82]
43 | + |  |  | COc1cc(C(=N)N)ccc1OC/C=C\COc1ccc(C(=N)N)cc1OC [Compound 86]
44 | + |  |  | CC(C)NC(=N)c1cccc(COc2ccc3ccc(OCc4cccc(C(=N)NC(C)C)c4)cc3c2)c1 [Compound 91]
45 | + |  |  | COC(=O)C(CCOc1ccc(C(=N)NO)cc1)CCOc1ccc(C(=N)NO)cc1 (centres unmarked) [Compound 95]
46 | + |  |  | CC(C)NC(=N)c1ccc(-c2ccc(-c3ccc(C(=N)NC(C)C)cc3)o2)cc1 [Compound 100]
47 | + | + | − | Cn1c(-c2nc3ccc(C(=N)N)cc3[nH]2)ccc1-c1nc2ccc(C(=N)N)cc2[nH]1 [Compound 103]
48 | + |  |  | Cc1nc(-c2ccc(C(=N)N)cc2)cc(-c2ccc(C(=N)N)cc2)n1 [Compound 106]
49 | + |  |  | Cn1c(-c2ccc(C(=N)N)cc2)ccc1-c1ccc(C(=N)N)cc1 [Compound 108]
50 | + |  |  | N=C(N)c1ccc2nc(-c3ccc(-c4ccc(-c5nc6ccc(C(=N)N)cc6[nH]5)cc4)cc3)[nH]c2c1 [Compound 113]
51 | + | + | − | N=C(N)c1ccc2nc(-c3ccc(Cc4ccc(-c5nc6ccc(C(=N)N)cc6[nH]5)cc4)cc3)[nH]c2c1 [Compound 114]
52 | + | + | − | N=C(N)c1ccc2nc(-c3ccc(CCc4ccc(-c5nc6ccc(C(=N)N)cc6[nH]5)s4)cc3)[nH]c2c1 [Compound 116]
53 | − |  |  | Cc1cc(C(=N)N)ccc1-c1ccc(-c2ccc(C(=N)N)cc2C)o1 [Compound 118]
54 | + |  |  | N=C(N)c1ccc2[nH]c(-c3ccc4c(=O)cc(-c5ccccc5)oc4c3)nc2c1 [Compound 119]
55 | + | + | − | CCc1ccc(CCc2ccc(-c3nc4ccc(C(=N)N)cc4[nH]3)cc2)cc1 [Compound 125]
56 | + |  |  | N=C(N)c1ccc2nc(-c3ccc(CCc4ccc(F)cc4)cc3)[nH]c2c1 [Compound 126]
57 | + |  |  | N=C(N)c1ccc(-c2ccc(-c3nc4cc(C(=N)N)ccc4o3)o2)cc1 [Compound 129]
58 | + |  |  | Cc1cc(C(=N)N)ccc1-c1ccc(-c2nc3ccc(C(=N)N)cc3[nH]2)o1 [Compound 131]
59 | + |  |  | CC(=N)Nc1ccc(-c2ccc(-c3ccc(NC(C)=N)cc3C)o2)c(C)c1 [Compound 135]
60 | + |  |  | N=C(Nc1ccc(-c2ccc(-c3ccc(NC(=N)c4ccccn4)cc3O)o2)c(O)c1)c1ccccn1 [Compound 136]
